Patent US11672792B2, “Topical formulations comprising montelukast and combinations with mussel adhesive proteins” (ENLITISA (SHANGHAI) PHARMACEUTICAL CO., LTD, priority 2017, dated 2023)

Key:
[1] = system: carrageenan-induced acute inflammation in subcutaneous air pouch; assay: Air Pouch Model I (Example 1); format: in vivo, C57BL/6 mice; design: Activity score / Edema Score / Sum (of histology scores) / Fibroplastic proliferation score / Inflammation score: scale not given here; details: MAP 1.5 mg, Mon 200 μg; for Exudate volume / Pouch Wall Weight / Leukocyte count in exudate / Lymphocyte count in exudate / Monocyte count in exudate / Neutrophil count in exudate: doses/mouse: dexamethasone 200 μg; for Exudate volume / Pouch Wall Weight: 24 h after carrageenan
Description: Healthy adult male C57BL/6 mice weighing between 20 and 30 g were supplied by Changzhou Cvens Experimental Animal Co. Ltd (Changzhou, Jiangsu Province, China). Prior to any experiments being conducted, mice were housed under standardized conditions (at a constant temperature or 22 t 2° C., with alternating 12 hour periods of light and darkness), and were fed on a standard mouse diet with water, for about a week.
General anesthesia was induced using intraperitoneal 3% chloral hydrate (Sinopharm Chemical Reagent Co., Ltd., Shanghai, China); 1 mL/10 g of body weight). The hair of the entire dorsum was shaved and depilated 1 day before sterile air injection.
Air pouches were produced by subcutaneous injection of sterile air (5 mL) into the intrascapular area of the mice. After three days, another injection of air (3 mL) was performed to maintain the pouches. In order to induce acute inflammation, three days after this final injection, animals received an injection of sterile carrageenan solution (CP Kelco, Taixing, Jiangsu Province, China; 1%, 0.5 mL; produced by adding 0.1 g of carrageenan powder into a beaker containing 10 mL of 0.9% saline solution and stirring). Mice were pre-treated with test samples or vehicle 1 hour before and 23 hours after the carrageenan injection into the subcutaneous air pouch. Animals were sacrificed 24 hours after the carrageenan injection.
Skin biopsies were taken from the air pouches. A part of the biopsy was fixed in formalin (produced by adding ultra pure water to 50 mL of a 40% formaldehyde solution (Nanchang Rain Dew Experimental Equipment Co., Ltd., Nanchang, […] Provence, China) up to a total volume of 500 mL) and analyzed by histological embedding in paraffin wax, sectioning and staining.
The cavity was washed with 4 mL of sterile phosphate buffer solution (pH 7.4; prepared by dissolving 4 g of NaCl, 0.1 g of KCl, 1.749 g of Na2HPO4.12H2O and 0.1 g of KH2PO4 in ultrapure water, adjusting the pH to 7.4 with HCl and diluting with water to a total volume of 500 mL).
Exudates were collected and volumes were quantified. The total number of cells was determined with a haematocytometer (ADVIA 2120 Hematology System, Siemens Healthineers).
In Table 1, MAP is a Mefp-1 solution, which is was prepared as follows. Blue mussels were harvested in the coastal area of Shandong Province, China. Mussel feet were collected, cut into small pieces and homogenized in an extraction buffer comprising 5% acetic acid in 4 mol/L of aqueous urea. The crude extracts were collected after centrifuging and then purified by liquid chromatography. […] The solutions that were employed below were prepared by adding saline solution to this semi-finished product to obtain a concentration as described in Table 1.

[2] = system: carrageenan-induced acute inflammation in subcutaneous air pouch; assay: Air Pouch Model II (Example 2); format: in vivo, mice; design: Fibroplastic proliferation score / Inflammation score / Activity score / Edema Score / Sum (of histology scores): scale not given here; details: Dex 400 μg, Dopamine 2 mg, MAP 250 μg, Mon 100 μg
Description: In Table 6, “Dex” is an abbreviation for dexamethasone and “Dopamine” is a 4 mg/mL aqueous solution of dopamine hydrochloride (Shanghai Aladdin Bio-Chem Technology Co., Ltd., Shanghai, China).
The histological specimens were analysed and an inflammation score, an activity score and a fibroplastic proliferation score were estimated as in Example 1 above and are tabulated in Table 9 below.

[3] = system: carrageenan-induced acute inflammation in subcutaneous air pouch; assay: Air Pouch Model: Topical Administration Versus Oral Administration (Example 4); details: 200 μg/mouse, Mon-O intragastric; for Exudate volume / Pouch Wall Weight: others injected into pouch
[4] = system: carrageenan-induced acute inflammation in subcutaneous air pouch; assay: Air Pouch Model: Combination of Montelukast (Example 5); format: in vivo, mice; details: MAP 1.5 mg, Mon 200 μg; for Exudate volume / Pouch Wall Weight: doses/mouse: dexamethasone 200 μg
[5] = dexamethasone 200 μg, listed as Mon (oral)
[6] = dexamethasone 200 μg, listed as Mon (topical)
[7] = pouch wall histology, dexamethasone 200 μg, listed as Mon (oral)
[8] = pouch wall histology, dexamethasone 200 μg, listed as Mon (topical)
[9] = others into pouch, listed as Mon-O
[10] = others into pouch, listed as Mon-T
[11] = dexamethasone 200 μg, listed as MON-O

CC(C)(O)c1ccccc1CC[C@@H](SCC1(CC(=O)O)CC1)c1cccc(/C=C/c2ccc3ccc(Cl)cc3n2)c1 [Mon, Montelukast sodium]
IFN-γ in exudate (ELISA) [1, 5]: 2495 ± 711 | IL-6 in exudate (ELISA) [1, 5]: 8453 ± 9758 | IL-10 in exudate (ELISA) [1, 5]: 52.59 ± 7.22 | TNF-α in exudate (ELISA) [1, 5]: 39.41 ± 17.62 | IFN-γ in exudate (ELISA) [1, 6]: 1690 ± 725 | IL-6 in exudate (ELISA) [1, 6]: 2528 ± 1538 | IL-10 in exudate (ELISA) [1, 6]: 68.18 ± 15.81 | TNF-α in exudate (ELISA) [1, 6]: 90.73 ± 109.02 | Exudate volume ([1]; listed as Mon (oral)): 3.58 ± 0.15 mL | Pouch Wall Weight ([1]; listed as Mon (oral)): 0.67 ± 0.10 g | Exudate volume ([1]; listed as Mon (topical)): 3.68 ± 0.15 mL | Pouch Wall Weight ([1]; listed as Mon (topical)): 0.66 ± 0.13 g | Leukocyte count in exudate ([1]; listed as Mon (oral)): 2.38e+08 mL⁻¹ | Lymphocyte count in exudate ([1]; listed as Mon (oral)): 1.98e+08 mL⁻¹ | Monocyte count in exudate ([1]; listed as Mon (oral)): 7e+06 mL⁻¹ | Neutrophil count in exudate ([1]; listed as Mon (oral)): 2.1e+07 mL⁻¹ | Leukocyte count in exudate ([1]; listed as Mon (topical)): 3.82e+08 mL⁻¹ | Lymphocyte count in exudate ([1]; listed as Mon (topical)): 3.22e+08 mL⁻¹ | Monocyte count in exudate ([1]; listed as Mon (topical)): 1.7e+07 mL⁻¹ | Neutrophil count in exudate ([1]; listed as Mon (topical)): 2.9e+07 mL⁻¹ | Activity score ([1]; pouch wall histology, dexamethasone 200 μg): 1.00 | Edema Score [1, 7]: 1.00 | Fibroplastic proliferation score [1, 7]: 0.33 | Sum (of histology scores) [1, 7]: 4.17 | Fibroplastic proliferation score [1, 8]: 0.83 | Inflammation score [1, 8]: 2.17 | Sum (of histology scores) [1, 8]: 5.50 | Fibroplastic proliferation score [2]: 0.00 | Exudate volume ([3]; listed as Mon-O): 3.69 ± 0.14 mL | Pouch Wall Weight ([3]; listed as Mon-O): 0.68 ± 0.08 g | Exudate volume ([3]; listed as Mon-T): 3.54 ± 0.09 mL | Pouch Wall Weight ([3]; listed as Mon-T): 0.65 ± 0.06 g | Activity score [3, 9]: 1.67 | Edema Score [3, 9]: 2.17 | IFN-γ in exudate (ELISA) [3, 9]: 557.95 ± 231.86 | IL-6 in exudate (ELISA) [3, 9]: 500.25 ± 292.84 | Inflammation score [3, 9]: 2.33 | Leukocyte count in exudate [3, 9]: 2.66e+06 mL⁻¹ | Sum (of histology scores) [3, 9]: 6.17 | TNF-α in exudate (ELISA) [3, 9]: 146.3 ± 70.74 | Activity score [3, 10]: 1.00 | IFN-γ in exudate (ELISA) [3, 10]: 568.19 ± 316.70 | IL-6 in exudate (ELISA) [3, 10]: 312.05 ± 189.23 | Inflammation score [3, 10]: 2.00 | Leukocyte count in exudate [3, 10]: 2.19e+06 mL⁻¹ | TNF-α in exudate (ELISA) [3, 10]: 80.37 ± 61.72 | Activity score ([4]; dexamethasone 200 μg): 1.00 | Fibroblast proliferation score ([4]; dexamethasone 200 μg): 0.83 | Inflammation score ([4]; dexamethasone 200 μg): 2.17 | Leukocyte count in exudate ([4]; dexamethasone 200 μg): 3.82e+06 mL⁻¹ | Lymphocyte count in exudate ([4]; dexamethasone 200 μg): 3.22e+06 mL⁻¹ | Monocyte count in exudate ([4]; dexamethasone 200 μg): 170000 mL⁻¹ | Neutrophil count in exudate ([4]; dexamethasone 200 μg): 290000 mL⁻¹ | Sum (of histology scores) ([4]; dexamethasone 200 μg): 5.50 | Edema Score [4, 11]: 1.00 | Fibroblast proliferation score [4, 11]: 0.33 | Leukocyte count in exudate [4, 11]: 2.38e+06 mL⁻¹ | Lymphocyte count in exudate [4, 11]: 1.98e+06 mL⁻¹ | Monocyte count in exudate [4, 11]: 70000 mL⁻¹ | Neutrophil count in exudate [4, 11]: 210000 mL⁻¹ | Sum (of histology scores) [4, 11]: 4.17 | IFN-γ in exudate (ELISA) [4, 5]: 2495 ± 711 | IL-6 in exudate (ELISA) [4, 5]: 8453 ± 9758 | IL-10 in exudate (ELISA) [4, 5]: 52.59 ± 7.22 | TNF-α in exudate (ELISA) [4, 5]: 39.41 ± 17.62 | IFN-γ in exudate (ELISA) [4, 6]: 1690 ± 725 | IL-6 in exudate (ELISA) [4, 6]: 2528 ± 1538 | IL-10 in exudate (ELISA) [4, 6]: 68.18 ± 15.81 | TNF-α in exudate (ELISA) [4, 6]: 90.73 ± 109.02 | Exudate volume [4]: 3.68 ± 0.15 mL | Pouch Wall Weight [4]: 0.66 ± 0.13 g | Exudate volume ([4]; listed as MON-O): 3.58 ± 0.15 mL | Pouch Wall Weight ([4]; listed as MON-O): 0.67 ± 0.10 g
